Reference: US20240190890A1, “MK2 INHIBITORS AND USES THEREOF” (Bristol-Myers Squibb Company, priority 2022, published 2024)

Target: p38a activated, mitogen-activated protein kinase-activated protein kinase 2 (MAPKAP-K2 or MK2) enzyme (Homo sapiens (Human), UniProt P49137)
Assay: MK2 Omnia continuous-read kinase assay for compound potency
Format: biochemical
Settings: [MK-2]=0.4 nM, [ATP]=10 μM, [ST3-Sox]=10 μM; room temperature
Procedure, shortened: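 Continuous Sox-peptide fluorescence read (ex360/em485) every 71 s over 2 h at room temperature. Reactions: 10 μM each of ATP (at apparent Km) and S/T3-Sox, 0.4 nM p38a-activated MK2, pH 7.5 Tris/MgCl2 buffer. Initial rates yield % inhibition and IC50; single-exponential kobs values yield apparent kinact/KI.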

p38a activated, mitogen-activated protein kinase-activated protein kinase 2 (MAPKAP-K2 or MK2) enzyme, sequence (P49137 whole entry): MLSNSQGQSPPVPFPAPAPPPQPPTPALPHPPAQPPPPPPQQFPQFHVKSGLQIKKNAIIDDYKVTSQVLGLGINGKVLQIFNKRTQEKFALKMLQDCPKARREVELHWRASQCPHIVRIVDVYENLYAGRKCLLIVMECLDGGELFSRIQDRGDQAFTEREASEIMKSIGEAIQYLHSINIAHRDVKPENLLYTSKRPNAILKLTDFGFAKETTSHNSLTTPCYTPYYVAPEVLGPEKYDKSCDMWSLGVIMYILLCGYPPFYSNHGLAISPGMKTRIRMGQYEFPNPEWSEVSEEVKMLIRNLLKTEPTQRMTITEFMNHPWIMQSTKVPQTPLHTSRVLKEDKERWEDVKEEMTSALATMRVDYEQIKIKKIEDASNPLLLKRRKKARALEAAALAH

| Compound | IC50 [nM] |
| --- | --- |
| C[C@@H]1CNc2c(sc3ccc4nc(-c5cc(Cl)nnc5OCCN5CCOCC5)ccc4c23)C(=O)N1 [Example I-132, (R)-3-(6-chloro-3-(2-morpholinoethoxy)pyridazin-4-yl)-10-methyl-9,10,11,12-tetrahydro-8H-[1,4]diazepino[5′,6′:4,5]thieno[3,2-f]quinolin-8-one] | 912 |
| C[C@@H]1CNc2c(sc3ccc4nc(-c5cc(Cl)nc(COC6CCOCC6)n5)ccc4c23)C(=O)N1 [Example I-23, (R)-3-(6-chloro-2-(((tetrahydro-2H-pyran-4-yl)oxy)methyl)pyrimidin-4-yl)-10-methyl-9,10,11,12-tetrahydro-8H-[1,4]diazepino[5′,6′:4,5]thieno[3,2-f]quinolin-8-one] | 487 |
| C=Cc1cc(C)nn1-c1ccc2c(ccc3sc4c(c32)NC[C@@H](C)NC4=O)n1 [Example I-236, (R)-10-methyl-3-(3-methyl-5-vinyl-1H-pyrazol-1-yl)-9,10,11,12-tetrahydro-8H-[1,4]diazepino[5′,6′:4,5]thieno[3,2-f]quinolin-8-one] | 157 |
| C=Cc1ncc(OC)c(-c2ccc3c(ccc4sc5c(c43)NC[C@@H](C)NC5=O)n2)n1 [Example I-32, (R)-3-(5-methoxy-2-vinylpyrimidin-4-yl)-10-methyl-9,10,11,12-tetrahydro-8H-[1,4]diazepino[5′,6′:4,5]thieno[3,2-f]quinolin-8-one] | 245 |
| C=Cc1cc(-c2ccc3c(ccc4sc5c(c43)NC[C@@H](C)NC5=O)n2)cc(N2CCC(F)CC2)n1 [Example I-239, (R)-3-(2-(4-fluoropiperidin-1-yl)-6-vinylpyridin-4-yl)-10-methyl-9,10,11,12-tetrahydro-8H-[1,4]diazepino[5′,6′:4,5]thieno[3,2-f]quinolin-8-one] | 161 |
| C=Cc1cc(-c2ccc3c(ccc4sc5c(c43)NC[C@@H](C)NC5=O)n2)c(OCCN2CCOCC2)nn1 [Example I-133, (R)-10-methyl-3-(3-(2-morpholinoethoxy)-6-vinylpyridazin-4-yl)-9,10,11,12-tetrahydro-8H-[1,4]diazepino[5′,6′:4,5]thieno[3,2-f]quinolin-8-one] | 255 |
| C=Cc1cc(-c2ccc3c(ccc4sc5c(c43)NC[C@@H](C)NC5=O)n2)cc(N2CCCCC2)n1 [Example I-177, (R)-10-methyl-3-(2-(piperidin-1-yl)-6-vinylpyridin-4-yl)-9,10,11,12-tetrahydro-8H-[1,4]diazepino[5′,6′:4,5]thieno[3,2-f]quinolin-8-one] | 140 |
| COc1nnc(/C=C/C(F)(F)F)cc1-c1ccc2c(ccc3sc4c(c32)NC[C@@H](C)NC4=O)n1 [Example I-200, (R,E)-3-(3-methoxy-6-(3,3,3-trifluoroprop-1-en-1-yl)pyridazin-4-yl)-10-methyl-9,10,11,12-tetrahydro-8H-[1,4]diazepino[5′,6′:4,5]thieno[3,2-f]quinolin-8-one] | 1000 |
| C=C(C)c1ncc(F)c(-c2ccc3c(ccc4sc5c(c43)NC[C@@H](C)NC5=O)n2)n1 [Example I-47, (R)-3-(5-fluoro-2-(prop-1-en-2-yl)pyrimidin-4-yl)-10-methyl-9,10,11,12-tetrahydro-8H-[1,4]diazepino[5′,6′:4,5]thieno[3,2-f]quinolin-8-one] | 429 |
| C#Cc1ncc(OC)c(-c2ccc3c(ccc4sc5c(c43)NC[C@@H](C)NC5=O)n2)n1 [Example I-42, (R)-3-(2-ethynyl-5-methoxypyrimidin-4-yl)-10-methyl-9,10,11,12-tetrahydro-8H-[1,4]diazepino[5′,6′:4,5]thieno[3,2-f]quinolin-8-one] | 233 |
| C=Cc1nc(-c2ccc3c(ccc4sc5c(c43)NC[C@@H](C)NC5=O)n2)nn1C [Example I-208, (R)-10-methyl-3-(1-methyl-5-vinyl-1H-1,2,4-triazol-3-yl)-9,10,11,12-tetrahydro-8H-[1,4]diazepino[5′,6′:4,5]thieno[3,2-f]quinolin-8-one] | 285 |
| C[C@@H]1CNc2c(sc3ccc4nc(-c5nc(Cl)c(C(F)(F)F)cc5F)ccc4c23)C(=O)N1 [Example I-274, (R)-3-(6-chloro-3-fluoro-5-(trifluoromethyl)pyridin-2-yl)-10-methyl-9,10,11,12-tetrahydro-8H-[1,4]diazepino[5′,6′:4,5]thieno[3,2-f]quinolin-8-one] | 752 |

Stronger by IC50, values ahead:

| IC50 [nM] | Compound |
| --- | --- |
| 2 | C=Cc1cc(-c2ccc3c(ccc4sc5c(c43)NC[C@@H](C)NC5=O)n2)cc(CO)n1 [Example I-99, (R)-3-(2-(hydroxymethyl)-6-vinylpyridin-4-yl)-10-methyl-9,10,11,12-tetrahydro-8H-[1,4]diazepino[5′,6′:4,5]thieno[3,2-f]quinolin-8-one] |
| 2 | C=Cc1nc(C)nn1-c1ccc2c(ccc3sc4c(c32)NC[C@@H](C)NC4=O)n1 [Example I-224, (R)-10-methyl-3-(3-methyl-5-vinyl-1H-1,2,4-triazol-1-yl)-9,10,11,12-tetrahydro-8H-[1,4]diazepino[5′,6′:4,5]thieno[3,2-f]quinolin-8-one] |
| 11 | C=Cc1cc(-c2ccc3c(ccc4sc5c(c43)NC[C@@H](C)NC5=O)n2)cc(CN2CCC(OC)CC2)n1 [Example I-121, (R)-3-(2-((4-methoxypiperidin-1-yl)methyl)-6-vinylpyridin-4-yl)-10-methyl-9,10,11,12-tetrahydro-8H-[1,4]diazepino[5′,6′:4,5]thieno[3,2-f]quinolin-8-one] |
| 125 | C#Cc1cc(-c2ccc3c(ccc4sc5c(c43)NC[C@@H](C)NC5=O)n2)cc(CN2CCC(F)(F)CC2)n1 [Example I-124, (R)-3-(2-((4,4-difluoropiperidin-1-yl)methyl)-6-ethynylpyridin-4-yl)-10-methyl-9,10,11,12-tetrahydro-8H-[1,4]diazepino[5′,6′:4,5]thieno[3,2-f]quinolin-8-one] |
| 8 | C=Cc1cc(-c2ccc3c(ccc4sc5c(c43)NC[C@@H](C)NC5=O)n2)cc(C2CCN(C)CC2)n1 [Example I-106, (R)-10-methyl-3-(2-(1-methylpiperidin-4-yl)-6-vinylpyridin-4-yl)-9,10,11,12-tetrahydro-8H-[1,4]diazepino[5′,6′:4,5]thieno[3,2-f]quinolin-8-one] |
| 1 | C=Cc1cc(-c2ccc3c(ccc4sc5c(c43)NC[C@@H](C)NC5=O)n2)nc(COC)n1 [Example I-13, (R)-3-(2-(methoxymethyl)-6-vinylpyrimidin-4-yl)-10-methyl-9,10,11,12-tetrahydro-8H-[1,4]diazepino[5′,6′:4,5]thieno[3,2-f]quinolin-8-one] |
| 118 | C#Cc1cc(-c2ccc3c(ccc4sc5c(c43)NC[C@@H](C)NC5=O)n2)c(N(C)C)nn1 [Example I-105, (R)-3-(3-(dimethylamino)-6-ethynylpyridazin-4-yl)-10-methyl-9,10,11,12-tetrahydro-8H-[1,4]diazepino[5′,6′:4,5]thieno[3,2-f]quinolin-8-one] |
| 7 | C=Cc1cc(-c2ccc3c(ccc4sc5c(c43)NC[C@@H](C)NC5=O)n2)cc(CN2C[C@@H](C)O[C@@H](C)C2)n1 [Example I-185, (R)-3-(2-(((2S,6R)-2,6-dimethylmorpholino)methyl)-6-vinylpyridin-4-yl)-10-methyl-9,10,11,12-tetrahydro-8H-[1,4]diazepino[5′,6′:4,5]thieno[3,2-f]quinolin-8-one] |
| 17 | C#Cc1cc(-c2ccc3c(ccc4sc5c(c43)NC[C@@H](C)NC5=O)n2)c(C(F)F)cn1 [Example I-92, (R)-3-(5-(difluoromethyl)-2-ethynylpyridin-4-yl)-10-methyl-9,10,11,12-tetrahydro-8H-[1,4]diazepino[5′,6′:4,5]thieno[3,2-f]quinolin-8-one] |
| 10 | C=C(C)c1cc(-c2ccc3c(ccc4sc5c(c43)NC[C@@H](C)NC5=O)n2)nc(COCC)n1 [Example I-37, (R)-3-(2-(ethoxymethyl)-6-(prop-1-en-2-yl)pyrimidin-4-yl)-10-methyl-9,10,11,12-tetrahydro-8H-[1,4]diazepino[5′,6′:4,5]thieno[3,2-f]quinolin-8-one] |
| 123 | C=Cc1sncc1-c1ccc2c(ccc3sc4c(c32)NC[C@@H](C)NC4=O)n1 [Example I-229, (R)-10-methyl-3-(5-vinylisothiazol-4-yl)-9,10,11,12-tetrahydro-8H-[1,4]diazepino[5′,6′:4,5]thieno[3,2-f]quinolin-8-one] |
| 14 | C=Cc1ncc(-c2ccc3c(ccc4sc5c(c43)NC[C@@H](C)NC5=O)n2)[nH]1 [Example I-150, (R)-10-methyl-3-(2-vinyl-1H-imidazol-5-yl)-9,10,11,12-tetrahydro-8H-[1,4]diazepino[5′,6′:4,5]thieno[3,2-f]quinolin-8-one] |
| 34 | C#Cc1cc(-c2ccc3c(ccc4sc5c(c43)NC[C@@H](C)NC5=O)n2)cc(CN2CCN(C)CC2)n1 [Example I-126, (R)-3-(2-ethynyl-6-((4-methylpiperazin-1-yl)methyl)pyridin-4-yl)-10-methyl-9,10,11,12-tetrahydro-8H-[1,4]diazepino[5′,6′:4,5]thieno[3,2-f]quinolin-8-one] |
| 26 | C=Cc1ncn(-c2ccc3c(ccc4sc5c(c43)NC[C@@H](C)NC5=O)n2)n1 [Example I-207, (R)-10-methyl-3-(3-vinyl-1H-1,2,4-triazol-1-yl)-9,10,11,12-tetrahydro-8H-[1,4]diazepino[5′,6′:4,5]thieno[3,2-f]quinolin-8-one] |
| 4 | C[C@@H]1CNc2c(sc3ccc4nc(-c5cc(Cl)nc(CO)n5)ccc4c23)C(=O)N1 [Example I-74, (R)-3-(6-chloro-2-(hydroxymethyl)pyrimidin-4-yl)-10-methyl-9,10,11,12-tetrahydro-8H-[1,4]diazepino[5′,6′:4,5]thieno[3,2-f]quinolin-8-one] |
| 97 | C[C@@H]1CNc2c(sc3ccc4nc(-c5nc(Cl)ncc5C#N)ccc4c23)C(=O)N1 [Example I-9, (R)-2-chloro-4-(10-methyl-8-oxo-9,10,11,12-tetrahydro-8H-[1,4]diazepino[5′,6′:4,5]thieno[3,2-f]quinolin-3-yl)pyrimidine-5-carbonitrile] |
